Laboratory results: article PMC5237709 (Acta Pharmaceutica Sinica. B, 2016)

Experiments:
[1] = biological target: M-Hsp90 (Saccharomyces cerevisiae, UniProt P02829); experiment: Fluorescence quenching titration of middle domain of Hsp90; format: binding, Yeast; conditions: M-Hsp90 (272–617)
[2] = biological target: N-Hsp90 (Saccharomyces cerevisiae, UniProt P02829); experiment: Fluorescence quenching titration of N-terminal domain of Hsp90; format: binding, Yeast; conditions: N-Hsp90 (1–236)
[3] = biological target: T1, C-Hsp90 (Saccharomyces cerevisiae, UniProt P02829); experiment: Fluorescence quenching titration of C-terminal domain of Hsp90; format: binding, Yeast; conditions: C-Hsp90 (629–732)
T1 sequence (P02829 608-709): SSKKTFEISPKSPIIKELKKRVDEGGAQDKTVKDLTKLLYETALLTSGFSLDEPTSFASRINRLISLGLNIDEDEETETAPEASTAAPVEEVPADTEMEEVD

[4] = biological target: Hsp90 ATPase (Saccharomyces cerevisiae, UniProt P02829); experiment: Hsp90 ATPase activity assay; format: biochemical, Yeast
Chain of Hsp90 ATPase (P02829 whole entry): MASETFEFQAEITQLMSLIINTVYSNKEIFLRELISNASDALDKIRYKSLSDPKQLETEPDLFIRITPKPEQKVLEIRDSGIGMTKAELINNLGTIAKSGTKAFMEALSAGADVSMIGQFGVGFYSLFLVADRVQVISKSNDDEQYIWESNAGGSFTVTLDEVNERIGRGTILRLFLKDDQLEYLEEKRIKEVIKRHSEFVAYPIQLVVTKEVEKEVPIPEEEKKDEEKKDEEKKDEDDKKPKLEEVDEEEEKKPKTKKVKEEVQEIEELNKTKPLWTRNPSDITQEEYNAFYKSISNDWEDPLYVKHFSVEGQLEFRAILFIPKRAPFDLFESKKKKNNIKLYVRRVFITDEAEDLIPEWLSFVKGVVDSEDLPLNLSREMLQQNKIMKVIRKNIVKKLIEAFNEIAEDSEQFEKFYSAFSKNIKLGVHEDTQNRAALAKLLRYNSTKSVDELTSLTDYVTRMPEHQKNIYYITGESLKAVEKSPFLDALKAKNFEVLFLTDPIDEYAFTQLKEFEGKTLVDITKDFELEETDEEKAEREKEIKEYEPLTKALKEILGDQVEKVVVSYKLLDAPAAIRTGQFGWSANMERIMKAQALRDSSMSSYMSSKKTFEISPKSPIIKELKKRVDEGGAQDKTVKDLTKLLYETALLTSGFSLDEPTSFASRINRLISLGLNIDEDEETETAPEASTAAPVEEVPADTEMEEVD

Chain of N-Hsp90 (P02829 1-223): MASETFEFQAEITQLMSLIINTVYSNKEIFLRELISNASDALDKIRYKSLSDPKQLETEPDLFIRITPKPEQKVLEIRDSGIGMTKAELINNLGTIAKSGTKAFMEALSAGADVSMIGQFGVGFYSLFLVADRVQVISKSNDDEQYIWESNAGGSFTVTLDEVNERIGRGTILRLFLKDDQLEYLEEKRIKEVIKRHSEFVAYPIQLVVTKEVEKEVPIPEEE
Chain of M-Hsp90 (P02829 252-596): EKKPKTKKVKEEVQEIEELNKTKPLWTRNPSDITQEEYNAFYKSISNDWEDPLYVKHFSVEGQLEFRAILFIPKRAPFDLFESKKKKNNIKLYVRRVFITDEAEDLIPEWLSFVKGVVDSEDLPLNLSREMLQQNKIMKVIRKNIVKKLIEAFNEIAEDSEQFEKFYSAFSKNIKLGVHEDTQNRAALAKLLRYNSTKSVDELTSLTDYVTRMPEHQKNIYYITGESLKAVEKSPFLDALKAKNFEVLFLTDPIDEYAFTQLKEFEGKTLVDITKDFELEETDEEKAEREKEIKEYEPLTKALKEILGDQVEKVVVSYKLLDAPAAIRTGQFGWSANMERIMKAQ

Fmax [1]: 158.20±1.68
Fmax [2]: 221.22±4.91
Fmax [3]: 67.91±0.63
Inhibition of the ATPase activity of Hsp90 (in words) [4]: dose-dependent inhibition
Structure (SMILES): COC1=C2C[C@@H](C)C[C@H](OC)[C@H](O)[C@@H](C)/C=C(\C)[C@H](OC(N)=O)[C@@H](OC)/C=C\C=C(/C)C(=O)NC(=CC1=O)C2=O [GA, Geldanamycin]
